Measured values published in patent US6548540B2, “Method of treating cancer using dithiocarbamate derivatives” (Charlotte-Mecklenburg Hospital Authority, priority 1998, dated 2003).
Read-outs that look alike come from different tables or passages of the source.

Tests used:
[1] = test system: Adenosquamous lung carcinoma NCI-H596; test: MTT proliferation assay, adenosquamous lung carcinoma; assay type: cell-based; conditions: Homo sapiens, read-out: Mean Percent Inhibition of Growth; for inhibition at 0.625 µM: disulfiram 0.625 μM; for inhibition at 1.25 µM: disulfiram 1.25 μM; for inhibition at 2.5 µM: disulfiram 2.5 μM; for inhibition at 5 µM: disulfiram 5.0 μM
Protocol: (§1) Human malignant cell lines were obtained from American Type Tissue Culture Collection (Rockville, Md.). Melanoma cells lines CRL 1585 and 1619 were cultured in RPMI 1640 (GIBCO-BRL, Life Technologies, Grand Island, N.Y.) with 10% FBS and passed with nonenzymatic Cell Dissociation Solution® (Sigma). The prostate adenocarcinoma cell line CRL 1435 (PC-3) was also cultured in RPMI 1640 with 10% FBS but passed with 0.05% trypsin and 0.53 mM EDTA. The squamous lung carcinoma NCI-H520 and the adenosquamous lung carcinoma NCI-H596 cell lines were grown in RPMI 1640 supplemented with 10% FBS, 10 mM HEPES and 1.0 mM sodium pyruvate and passed with trypsin/EDTA. The small cell lung carcinoma NCI-H82 was cultured as a suspension in RPMI 1640 with 10% FBS. All of the above were grown in a 37° C. humidified environment containing 5% CO2/air. The breast carcinoma cell line MDA-MB-453 was grown in a 37° C. humidified environment with free gas exchange with atmospheric air using Leibovitz's L-15 medium with 2 mM L-glutamine and 10% FBS and was passed with trypsin/EDTA.
The effect of disulfiram (0.15 to 5.0 μM), diethyldithiocarbamate (DDC, 1.0 μM) or PDTC (0.625 to 5.0 μM) on proliferation of malignant cell lines was studied in cultures stimulated with 10% FBS. Cell numbers were quantitated 24-72 hours later. In some experiments disulfiram or PDTC were added immediately after cells were plated. In other experiments, cells were plated and allowed to grow for 24-72 hours before fresh media with disulfiram or PDTC was added, and cell numbers were assayed 24-72 hours later. Synergy was studied between disulfiram and N,N′-bis(2-chloroethyl-N-nitrosourea (carmustine or BCNU, 1.0 to 1,000 μM) or cisplatin (0.1 to 100 μg/ml) added to medium. The effect of metals on disulfiram was studied with 0.2 to 10 μM copper (provided as CuSO4), zinc (as ZnCl2), silver (as silver lactate) or gold (as HAuCl4.3H2O) ions added to growth medium. No pH changes occurred with addition of metal salts to culture medium. To provide a biologically relevant source of copper, in some experiments medium was supplemented with human ceruloplasmin at doses replicating low and high normal adult serum concentrations (250 and 500 μg/ml).
Proliferation of cultured cells was quantitated using a previously reported calorimetric method based upon metabolic reduction of the soluble yellow tetrazolium dye 3-[4,5-dimethylthiazol]-2yl-2,5-diphenyl tetrazolium bromide (MTT) to its insoluble purple formazan by the action of mitochondrial succinyl dehydrogenase (See, e.g., S. J. Hirst, et al., “Quantifying proliferation of cultured human and rabbit airway smooth muscle in response to serum and platelet derived growth factor,” Am. J. Respir. Cell Mol. Biol. 7:574-581 (1992); R. Dashtaki, et al. R., supra; S. S. Brar, et al., “Requirement for reactive oxygen species in serum-induced and platelet-derived growth factor-induced growth of airway smooth muscle,” J. Biol. Chem. 274:20017-20026 (1999)). This assay empirically distinguishes between dead and living cells. For proliferation studies, cells were seeded into 24-well uncoated plastic plates (Costar) at 50,000 cells per well and cultured with respective media and mitogens. After 24-96 hours, medium was removed, cells were washed twice with 1 ml of sterile Dulbecco's modified phosphate buffered saline without Ca^2+ or Mg^2+ (DPBS), the medium was replaced with 1 ml/well fresh medium containing 100 μg/ml MTT, and plates were incubated an additional hour. MTT-containing medium was removed, 0.5 ml dimethylsulfoxide (DMSO) was added to each well, and the absorbance of the solubilized purple formazan dye was measured at 540 nm. A total of 4-6 wells were studied at each treatment condition. Preliminary studies were performed with 50-200 μg/ml MTT incubated for 15 minutes to 3 hours to determine the optimum concentration and incubation time at which the rate of conversion was linear and proportional to the number of cells present. […]

[2] = test system: Squamous lung carcinoma NCI-H520; test: MTT proliferation assay, squamous lung carcinoma; assay type: cell-based; conditions: Homo sapiens, treatment initially, after 48 hours, 10% FBS, read-out: Mean Percent Inhibition of Growth
Protocol: as §1
(§2) The effect of disulfiram (0.15 to 5.0 μM), diethyldithiocarbamate (DDC, 1.0 μM) or PDTC (0.625 to 5.0 μM) on proliferation of malignant cell lines was studied in cultures stimulated with 10% FBS. Cell numbers were quantitated 24-72 hours later. In some experiments disulfiram or PDTC were added immediately after cells were plated. In other experiments, cells were plated and allowed to grow for 24-72 hours before fresh media with disulfiram or PDTC was added, and cell numbers were assayed 24-72 hours later. […]
(§3) Proliferation of cultured cells was quantitated using a previously reported calorimetric method based upon metabolic reduction of the soluble yellow tetrazolium dye 3-[4,5-dimethylthiazol]-2yl-2,5-diphenyl tetrazolium bromide (MTT) to its insoluble purple formazan by the action of mitochondrial succinyl dehydrogenase (See, e.g., S. J. Hirst, et al., “Quantifying proliferation of cultured human and rabbit airway smooth muscle in response to serum and platelet derived growth factor,” Am. J. Respir. Cell Mol. Biol. 7:574-581 (1992); R. Dashtaki, et al. R., supra; S. S. Brar, et al., “Requirement for reactive oxygen species in serum-induced and platelet-derived growth factor-induced growth of airway smooth muscle,” J. Biol. Chem. 274:20017-20026 (1999)). […] MTT-containing medium was removed, 0.5 ml dimethylsulfoxide (DMSO) was added to each well, and the absorbance of the solubilized purple formazan dye was measured at 540 nm. […]

p53 = test: Immunoblot for p53; assay type: cell-based, human; conditions: cell lines studied; data not shown
Protocol: Cells were lysed and proteins were isolated and quantitated by immunoassay as previously detailed using 2 μg/ml of primary rabbit polyclonal antibodies against human bcl-2, p53, p21^WAF1/CiP1, cyclin A and cyclin B1, and peroxidase-labeled donkey polyclonal anti-rabbit IgG. Cells were placed on ice, washed twice with cold DPBS, scraped into 0.5 ml boiling buffer (10% [vol/vol] glycerol and 2% [wt/vol] sodium dodecyl sulfate [SDS] in 83 mM Tris, pH 6.8) and sheared by four passages through a pipette. Aliquots were removed for protein determination, using the BCA protein assay (Pierce). After 10% β-mercaptoethanol and 0.05% bromophenol blue were added, lysates were boiled for 5 min and stored at −80° C. until immunoblotting was performed. Proteins in defrosted samples were separated by SDS-polyacrylamide gel electrophoresis on 12% polyacrylamide gels (15 μg protein/lane) and electrotransferred to 0.45 μm Hybond ECL nitrocellulose membranes (Amersham Life Sciences) using the wet transblot method in transfer buffer (0.025 M Tris, 0.192 M glycine, 2.6 mM SDS, and 20%[vol/vol] methanol; pH 8.8) at 100 volts for 1 hour. […] Immunoblots were rinsed again as above and detected via an enhanced chemiluminescence method (ECL Western blotting detection system, Amersham Life Science, Buckinghamshire, England). […]

[3] = test system: Prostate carcinoma CRL 1435 (PC-3); test: MTT proliferation assay, prostate carcinoma PC-3; assay type: cell-based; conditions: Homo sapiens, treatment initially, after 48 hours, 10% FBS, read-out: Mean Percent Inhibition of Growth
Protocol: as §1, §2, §3

[4] = treatment after 24 hours of growth, additional 24 hours
[5] = treatment initially, after 48 hours, 10% FBS

For `CCN(CC)C(=S)SSC(=S)N(CC)CC` [Disulfiram, tetraethylthiuram disulfide], the inhibition at 0.625 µM [1, 4] was 30 ± 3%, the inhibition at 0.625 µM [1, 5] was 47 ± 4% and the inhibition at 1.25 µM [1, 4] was 30 ± 3%. It also gave an inhibition at 1.25 µM [1, 5] of 57 ± 4%, an inhibition at 2.5 µM [1, 4] of 29 ± 1% and an inhibition at 2.5 µM [1, 5] of 50 ± 3%. The inhibition at 5 µM [1, 4] was 34 ± 3%, the inhibition at 5 µM [1, 5] was 50 ± 4% and the inhibition at 0.625 µM ([2]; disulfiram 0.625 μM) was 76 ± 3%. It also gave an inhibition at 1.25 µM ([2]; disulfiram 1.25 μM) of 82 ± 4%, an inhibition at 2.5 µM ([2]; disulfiram 2.5 μM) of 77 ± 4% and an inhibition at 5 µM ([2]; disulfiram 5.0 μM) of 78 ± 3%. The “expression of p53” value (p53) was “no consistent effect”, the inhibition at 0.625 µM ([3]; disulfiram 0.625 μM) was 6 ± 6% and the inhibition at 1.25 µM ([3]; disulfiram 1.25 μM) was 29 ± 5%. For the same compound, the inhibition at 2.5 µM ([3]; disulfiram 2.5 μM) was 48 ± 2% and the inhibition at 5 µM ([3]; disulfiram 5.0 μM) was 86 ± 2%.
